Results published in US20080207614A1, “QUINAZOLINE DERIVATIVES FOR THE TREATMENT AND PREVENTION OF DIABETES AND OBESITY” (SK CHEMICALS CO., LTD., priority 2004, published 2008).

Test system: AMPK
Experiment: Measurement of AMPK activity by Western blot in C2C12 cells
Assay type: cell-based
Parameters: key to AMPK activity (degree of phosphorylation of serine-79 and threonine-172): fold increase in threonine-172 phosphorylation
Details: 10 μM for 50 minutes, no superscript: Western blot of serine-79 and threonine-172 phosphorylation
Protocol: C2C12 cells were cultured and differentiated in the same manner as in Experimental Example 1. Treatment with the test materials was also performed in the same manner as in Experimental Example 1 (10 μM for 50 minutes). The culture medium was removed and the cells were washed for 2 times with PBS and protein extracts were obtained using a lysis buffer (50 mM tris-HCl, pH 7.4, 1% NP-40, 0.25% sodium deoxycholate, 150 mM NaCl, 1 mM EDTA, 1 mM PMSF, 1 mM sodium o-vanadate, 1 mM NaF, 1 μg/mL apronitin, 1 μg/mL leu-peptin, 1 μg/mL pepstatin). The AMPK activity was determined from Western blot analysis of the degree of phosphorylation of serine-79 […] acetyl CoA carboxylase and the degree of phosphorylation of threonine-172. The amount of ERK (extracellular signal regulated protein kinase) was confirmed by Western blot in order to quantify the proteins.
The result of Western blot analysis is given in Table 3 below, wherein “strong” means that the degree of phosphorylation of threonine-172 increased by 3 times or more, “mild” means that the degree of phosphorylation of threonine-172 increased by 1 to 3 times and “weak” means that the degree of phosphorylation of threonine-172 increased by less than 1 time.

Row | SMILES | AMPK activity (degree of phosphorylation of serine-79 and threonine-172)
1 | COc1cc(OC)c(CNc2nc(-c3ccco3)nc3ccccc23)c(OC)c1 [Compound 348, (2-Furano-2-ylquinazolino-4-yl)-(2,4,6-trimethoxybenzyl)-amine] | 1.6
2 | CCCc1nc(NCc2ccccc2OC)c2ccccc2n1 [Compound 393, (2-Methoxybenzyl)-(2-propylquinazolino-4-yl)-amine] | 1.0
3 | COc1ccccc1CNc1nc(-c2cccs2)nc2ccccc12 [Compound 349, (2-Methoxybenzyl)-(2-thiopenyl-2-ylquinazolino-4-yl)-amine] | 2.1
4 | CCCc1nc(NCc2ccc(OC)cc2OC)c2ccccc2n1 [Compound 401, (2,4-Dimethoxybenzyl)-(2-propylquinazolino-4-yl)-amine] | 1.4
5 | COc1cc(OC)c(CNc2nc(N3CCCC3)nc3ccccc23)c(OC)c1 [Compound 315, (2-Pyrrolidino-1-ylquinazolino-4-yl)-(2,4,6-trimethoxybenzyl)-amine] | 0.4
6 | CCOc1nc(NCc2ccc3c(c2)OCO3)c2ccccc2n1 [Compound 320, Benzo[1,3]dioxol-5-ylmethyl-(2-ethoxyquinazolino-4-yl)-amine] | 0.9
7 | COc1cccc(CNc2nc(-c3cccs3)nc3ccccc23)c1 [Compound 350, (3-Methoxybenzyl)-(2-thiopenyl-2-ylquinazolino-4-yl)-amine] | 0.6
8 | CCOc1nc(NCc2ccc(OC)cc2OC)c2ccccc2n1 [Compound 319, (2,4-Dimethoxybenzyl)-(2-ethoxyquinazolino-4-yl)-amine] | 1.5
9 | COc1cccc(CNc2nc(-c3ccco3)nc3ccccc23)c1OC [Compound 342, (2,3-Dimethoxybenzyl)-(2-furano-2-ylquinazolino-4-yl)-amine] | 1.0
10 | COc1cccc(CNc2nc(N3CCN(C)CC3)nc3ccccc23)c1 [Compound 282, (3-Methoxybenzyl)-[2-(4-methylpiperazino-1-yl)-quinazolino-4-yl]-amine] | 0.9
11 | COc1cccc(CNc2nc(N3CCOCC3)nc3ccccc23)c1OC [Compound 289, (2,3-Dimethoxybenzyl)-(2-morpholino-4-ylquinazolino-4-yl)-amine] | 1.5
12 | COc1ccccc1CNc1nc(N2CCOCC2)nc2ccccc12 [Compound 277, (2-Methoxybenzyl)-(2-morpholino-4-ylquinazolino-4-yl)-amine] | 1.3
13 | COc1cc(CNc2nc(N3CCCCC3)nc3ccccc23)cc(OC)c1OC [Compound 312, (2-Piperidino-1-ylquinazolino-4-yl)-(3,4,5-trimethoxybenzyl)-amine] | 0.3
14 | COc1ccc(CNc2nc(N3CCN(C)CC3)nc3ccccc23)c(OC)c1 [Compound 294, (2,4-Dimethoxybenzyl)-[2-(4-methylpiperazino-1-yl)-quinazolino-4-yl]-amine] | 0.4
15 | COc1cc(OC)c(CNc2nc(N3CCOCC3)nc3ccccc23)c(OC)c1 [Compound 317, (2-Morpholino-4-ylquinazolino-4-yl)-(2,4,6-trimethoxybenzyl)-amine] | 0.3
16 | COc1ccc(CNc2nc(N3CCCCC3)nc3ccccc23)cc1 [Compound 284, (4-Methoxybenzyl)-(2-piperidino-1-ylquinazolino-4-yl)-amine] | 1.4
17 | CC(C)c1nc(OCc2ccccc2)c2ccccc2n1 [Compound 415, 4-Benzyloxy-2-isopropylquinazoline] | 1.1
18 | COc1cc(CNc2nc(C(OC)c3ccccc3)nc3ccccc23)cc(OC)c1 (stereo not shown) [Compound 365, (3,5-Dimethoxybenzyl)-[2-(methoxyphenylmethyl)-quinazolino-4-yl]-amine] | 1.1
19 | COc1cccc(CNc2nc(N3CCOCC3)nc3ccccc23)c1 [Compound 281, (3-Methoxybenzyl)-(2-morpholino-4-ylquinazolino-4-yl)-amine] | 0.9
20 | COc1ccc(OC)c(CNc2nc(-c3cccs3)nc3ccccc23)c1 [Compound 358, (2,5-Dimethoxybenzyl)-(2-thiopenyl-2-ylquinazolino-4-yl)-amine] | 0.8

Row | SMILES | AMPK activity (degree of phosphorylation of serine-79 and threonine-172)
21 | COc1cc(OC)c(CNc2nc(N3CCN(C)CC3)nc3ccccc23)c(OC)c1 [Compound 318, [2-(4-Methylpiperazino-1-yl)-quinazolino-4-yl]-(2,4,6-trimethoxybenzyl)-amine] | 0.5
22 | COc1ccc(CNc2nc(-c3ccco3)nc3ccccc23)cc1OC [Compound 344, (3,4-Dimethoxybenzyl)-(2-furano-2-ylquinazolino-4-yl)-amine] | 0.4
23 | COc1ccc(CNc2nc(-c3ccco3)nc3ccccc23)c(OC)c1 [Compound 346, (2,4-Dimethoxybenzyl)-(2-furano-2-ylquinazolino-4-yl)-amine] | 0.8
24 | c1ccc2c(NCc3ccc4c(c3)OCO4)nc(C3CC3)nc2c1 [Compound 385, Benzo[1,3]dioxol-5-ylmethyl-(2-cyclopropylquinazolino-4-yl)-amine] | 2.8
25 | COc1ccc(CNc2nc(-c3cccs3)nc3ccccc23)cc1 [Compound 351, (4-Methoxybenzyl)-(2-thiopenyl-2-ylquinazolino-4-yl)-amine] | 0.7
26 | COc1cc(CNc2nc(N3CCOCC3)nc3ccccc23)cc(OC)c1OC [Compound 313, (2-Morpholino-4-ylquinazolino-4-yl)-(3,4,5-trimethoxybenzyl)-amine] | 0.1
27 | CC(C)c1nc(SCc2ccccc2)c2ccccc2n1 [Compound 416, 4-Benzylsulfanyl-2-isopropylquinazoline] | 0.7
28 | COc1cc(CNc2nc(N3CCCC3)nc3ccccc23)cc(OC)c1OC [Compound 311, (2-Pyrrolidino-1-ylquinazolino-4-yl)-(3,4,5-trimethoxybenzyl)-amine] | 0.2
29 | COc1cc(CNc2nc(C(OC)c3ccccc3)nc3ccccc23)cc(OC)c1OC (stereo not shown) [Compound 367, [2-(Methoxyphenylmethyl)-quinazolino-4-yl]-(3,4,5-trimethoxybenzyl)-amine] | 2.2
30 | COc1cc(CNc2nc(N3CCN(C)CC3)nc3ccccc23)cc(OC)c1OC [Compound 314, [2-(4-Methylpiperazino-1-yl)-quinazolino-4-yl]-(3,4,5-trimethoxybenzyl)-amine] | 0.2
31 | COc1cc(OC)c(CNc2nc(-c3cccs3)nc3ccccc23)c(OC)c1 [Compound 359, (2-Thiopenyl-2-ylquinazolino-4-yl)-(2,4,6-trimethoxybenzyl)-amine] | 0.9
32 | COc1ccc(OC)c(CNc2nc(N3CCOCC3)nc3ccccc23)c1 [Compound 297, (2,5-Dimethoxybenzyl)-(2-morpholino-4-ylquinazolino-4-yl)-amine] | 0.8
33 | COc1cccc(CNc2nc(N3CCCCC3)nc3ccccc23)c1 [Compound 280, (3-Methoxybenzyl)-(2-piperidino-1-ylquinazolino-4-yl)-amine] | 1.2
34 | COc1cccc(CNc2nc(N3CCCC3)nc3ccccc23)c1 [Compound 279, (3-Methoxybenzyl)-(2-pyrrolidino-1-ylquinazolino-4-yl)-amine] | 1.3
35 | COc1ccccc1CNc1nc(N2CCN(C)CC2)nc2ccccc12 [Compound 278, (2-Methoxybenzyl)-[2-(4-methylpiperazino-1-yl)-quinazolino-4-yl]-amine] | 1.2
36 | CCCc1nc(NCc2c(OC)cc(OC)cc2OC)c2ccccc2n1 [Compound 403, (2-Propylquinazolino-4-yl)-(2,4,6-trimethoxybenzyl)-amine] | 1.3
37 | COc1ccc(CNc2ncnc3ccccc23)cc1OC [Compound 410, (3,4-Dimethoxybenzyl)-quinazolino-4-ylamine] | 1.1
38 | COc1ccc(CNc2nc(-c3cccs3)nc3ccccc23)c(OC)c1 [Compound 357, (2,4-Dimethoxybenzyl)-(2-thiopenyl-2-ylquinazolino-4-yl)-amine] | 0.7
39 | COc1ccc(OC)c(CNc2nc(N3CCCC3)nc3ccccc23)c1 [Compound 295, (2,5-Dimethoxybenzyl)-(2-pyrrolidino-1-ylquinazolino-4-yl)-amine] | 0.2
40 | CCCc1nc(NCc2cc(OC)ccc2OC)c2ccccc2n1 [Compound 402, (2,5-Dimethoxybenzyl)-(2-propylquinazolino-4-yl)-amine] | 0.5
